Data on 22 compounds can be found in patent US9403813B2, “Azetidine amide derivatives as orexin receptor antagonists” (ACTELION PHARMACEUTICALS LTD, priority 2013, dated 2016).

One assay addresses human orexin-2 receptor (Homo sapiens (Human), UniProt O43614). Put plainly: Intracellular calcium measurements (FLIPR), antagonism of orexin-A response. In kind it is cell-based. The following applies: CHO cells expressing human orexin-2 receptor, 3 nM orexin-A, geometric mean if determined several times, read-out: IC50 OX2. The method, then: (§1) Antagonistic activities on both orexin receptors have been measured for each example compound using the following procedure:
(§2) In Vitro Assay: Intracellular Calcium Measurements:
(§3) Chinese hamster ovary (CHO) cells expressing the human orexin-1 receptor and the human orexin-2 receptor, respectively, are grown in culture medium (Ham F-12 with L-Glutamine) containing 300 μg/mL G418, 100 U/mL penicillin, 100 μg/mL streptomycin and 10% heat inactivated fetal calf serum (FCS). The cells are seeded at 20,000 cells/well into 384-well black clear bottom sterile plates (Greiner). The seeded plates are incubated overnight at 37° C. in 5% CO2. Human orexin-A as an agonist is prepared as 1 mM stock solution in MeOH:water (1:1), diluted in HBSS containing 0.1% bovine serum albumin (BSA), NaHCO3: 0.375 g/L and 20 mM HEPES for use in the assay at a final concentration of 3 nM.
(§4) Antagonists are prepared as 10 mM stock solution in DMSO, then diluted in 384-well plates using DMSO followed by a transfer of the dilutions into in HBSS containing 0.1% bovine serum albumin (BSA), NaHCO3: 0.375 g/L and 20 mM HEPES. On the day of the assay, 50 μL of staining buffer (HBSS containing 1% FCS, 20 mM HEPES, NaHCO3: 0.375 g/L, 5 mM probenecid (Sigma) and 3 μM of the fluorescent calcium indicator fluo-4 AM (1 mM stock solution in DMSO, containing 10% pluronic) is added to each well. The 384-well cell-plates are incubated for 50 min at 37° C. in 5% CO2 followed by equilibration at rt for 30 min before measurement.
(§5) Within the Fluorescent Imaging Plate Reader (FLIPR Tetra, Molecular Devices), antagonists are added to the plate in a volume of 10 μL/well, incubated for 120 min and finally 10 μL/well of agonist is added. Fluorescence is measured for each well at 1 second intervals, and the height of each fluorescence peak is compared to the height of the fluorescence peak induced by 3 nM orexin-A with vehicle in place of antagonist. The IC50 value (the concentration of compound needed to inhibit 50% of the agonistic response) is determined and may be normalized using the obtained IC50 value of an on-plate reference compound. Optimized conditions were achieved by adjustment of pipetting speed and cell splitting regime. The calculated IC50 values may fluctuate depending on the daily cellular assay performance. Fluctuations of this kind are known to those skilled in the art. In the case where IC50 values have been determined several times for the same compound, the geometric mean has been given.

In another assay the target is human orexin-1 receptor (Homo sapiens (Human), UniProt O43613). The description is as above. Type of assay: cell-based. Conditions: CHO cells expressing human orexin-1 receptor, 3 nM orexin-A, geometric mean if determined several times, read-out: IC50 OX1. As for the experimental part:
as §1, §2, §3, §4, §5

Broadly, the IC50 is the concentration that inhibits the measured activity by half.

SMILES strings stand for the structures.

human orexin-1 receptor, sequence (O43613 whole entry): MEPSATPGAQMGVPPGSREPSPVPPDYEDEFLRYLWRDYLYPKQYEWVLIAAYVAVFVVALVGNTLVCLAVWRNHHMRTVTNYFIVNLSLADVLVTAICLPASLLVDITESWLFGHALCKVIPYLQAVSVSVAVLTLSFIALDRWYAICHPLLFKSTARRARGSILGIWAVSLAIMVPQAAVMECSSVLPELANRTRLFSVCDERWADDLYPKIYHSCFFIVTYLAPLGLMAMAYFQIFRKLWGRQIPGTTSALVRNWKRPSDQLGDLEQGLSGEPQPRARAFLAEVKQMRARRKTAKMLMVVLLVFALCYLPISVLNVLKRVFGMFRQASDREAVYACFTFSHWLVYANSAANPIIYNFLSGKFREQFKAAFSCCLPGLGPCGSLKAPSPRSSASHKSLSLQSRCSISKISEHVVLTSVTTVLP
human orexin-2 receptor, sequence (O43614 whole entry): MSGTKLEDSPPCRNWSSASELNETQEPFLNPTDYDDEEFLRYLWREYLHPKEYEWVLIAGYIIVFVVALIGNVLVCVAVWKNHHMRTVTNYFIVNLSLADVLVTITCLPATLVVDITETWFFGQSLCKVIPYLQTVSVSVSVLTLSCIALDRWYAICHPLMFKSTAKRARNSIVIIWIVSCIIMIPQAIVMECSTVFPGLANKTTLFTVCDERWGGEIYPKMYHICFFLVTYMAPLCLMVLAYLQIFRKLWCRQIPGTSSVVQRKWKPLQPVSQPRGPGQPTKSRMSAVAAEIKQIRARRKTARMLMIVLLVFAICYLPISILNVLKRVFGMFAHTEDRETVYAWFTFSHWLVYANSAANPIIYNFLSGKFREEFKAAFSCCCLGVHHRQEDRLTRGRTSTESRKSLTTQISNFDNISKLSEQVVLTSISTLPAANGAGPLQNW

On to `Cc1ccc(-n2nccn2)c(C(=O)N2CC[C@H]2c2nc(-c3ccccc3C)no2)c1` [Example 1, (5-Methyl-2-[1,2,3]triazol-2-yl-phenyl)-[(S)-2-(3-o-tolyl-[1,2,4]oxadiazol-5-yl)-azetidin-1-yl]-methanone], for which the IC50 was 19 nM at human orexin-2 receptor and 1220 nM at human orexin-1 receptor.
On the same counts, the results for `Cc1ccc(-n2nccn2)c(C(=O)N2CC[C@H]2c2nc(-c3cccc(F)c3C)no2)c1` [Example 2, {(S)-2-[3-(3-Fluoro-2-methyl-phenyl)-[1,2,4]oxadiazol-5-yl]-azetidin-1-yl}-(5-methyl-2-[1,2,3]triazol-2-yl-phenyl)-methanone] are 9 nM and 713 nM.
`Cc1ccc(-c2noc([C@@H]3CCN3C(=O)c3cc(C)ccc3-n3nccn3)n2)cc1` [Example 3, (5-Methyl-2-[1,2,3]triazol-2-yl-phenyl)-[(S)-2-(3-p-tolyl-[1,2,4]oxadiazol-5-yl)-azetidin-1-yl]-methanone]: the half-maximal inhibitory concentration (IC50) on human orexin-2 receptor is 180 nM; at human orexin-1 receptor, 2110 nM.
On the same counts, the results for `COc1ccccc1-c1noc([C@@H]2CCN2C(=O)c2cc(C)ccc2-n2nccn2)n1` [Example 4, {(S)-2-[3-(2-Methoxy-phenyl)-[1,2,4]oxadiazol-5-yl]-azetidin-1-yl}-(5-methyl-2-[1,2,3]triazol-2-yl-phenyl)-methanone] are 38 nM and 1300 nM.
For the compound `COc1cccc(-c2noc([C@@H]3CCN3C(=O)c3cc(C)ccc3-n3nccn3)n2)c1` [Example 5, {(S)-2-[3-(3-Methoxy-phenyl)-[1,2,4]oxadiazol-5-yl]-azetidin-1-yl}-(5-methyl-2-[1,2,3]triazol-2-yl-phenyl)-methanone], the IC50 was found to be 25 nM on human orexin-2 receptor and 1190 nM at human orexin-1 receptor.
On the same counts, the results for `CCCOc1ccccc1-c1noc([C@@H]2CCN2C(=O)c2cc(C)ccc2-n2nccn2)n1` [Example 6, (5-Methyl-2-[1,2,3]triazol-2-yl-phenyl)-{(S)-2-[3-(2-propoxy-phenyl)-[1,2,4]oxadiazol-5-yl]-azetidin-1-yl}-methanone] are 115 nM and 472 nM.
On the same counts, the results for `Cc1ccc(-n2nccn2)c(C(=O)N2CC[C@H]2c2nc(-c3cccc(Cl)c3C)no2)c1` [Example 7, {(S)-2-[3-(3-Chloro-2-methyl-phenyl)-[1,2,4]oxadiazol-5-yl]-azetidin-1-yl}-(5-methyl-2-[1,2,3]triazol-2-yl-phenyl)-methanone] are 10 nM and 120 nM.
On the same counts, the results for `Cc1ccc(-n2nccn2)c(C(=O)N2CC[C@H]2c2nc(-c3c(C)cccc3F)no2)c1` [Example 8, {(S)-2-[3-(2-Fluoro-6-methyl-phenyl)-[1,2,4]oxadiazol-5-yl]-azetidin-1-yl}-(5-methyl-2-[1,2,3]triazol-2-yl-phenyl)-methanone] are 115 nM and 3430 nM.
On to `CCOc1c(F)cccc1-c1noc([C@@H]2CCN2C(=O)c2cc(C)ccc2-n2nccn2)n1` [Example 9, {(S)-2-[3-(2-Ethoxy-3-fluoro-phenyl)-[1,2,4]oxadiazol-5-yl]-azetidin-1-yl}-(5-methyl-2-[1,2,3]triazol-2-yl-phenyl)-methanone], for which the IC50 turned out to be 10 nM on human orexin-2 receptor and 134 nM at human orexin-1 receptor.
On to `Cc1ccc(-n2nccn2)c(C(=O)N2CC[C@H]2c2nc(-c3cc(C)ccc3C)no2)c1` [Example 10, {(S)-2-[3-(2,5-Dimethyl-phenyl)-[1,2,4]oxadiazol-5-yl]-azetidin-1-yl}-(5-methyl-2-[1,2,3]triazol-2-yl-phenyl)-methanone], for which the IC50 at human orexin-2 receptor was 17 nM; at human orexin-1 receptor it was 335 nM.
On the same counts, the results for `Cc1ccc(-n2nccn2)c(C(=O)N2CC[C@H]2c2nc(-c3cc(F)cc(F)c3)no2)c1` [Example 11, {(S)-2-[3-(3,5-Difluoro-phenyl)-[1,2,4]oxadiazol-5-yl]-azetidin-1-yl}-(5-methyl-2-[1,2,3]triazol-2-yl-phenyl)-methanone] are 280 nM and 2320 nM.
Consider `Cc1ccc(-n2nccn2)c(C(=O)N2CC[C@H]2c2nc(-c3ccc(F)c(F)c3)no2)c1` [Example 12, {(S)-2-[3-(3,4-Difluoro-phenyl)-[1,2,4]oxadiazol-5-yl]-azetidin-1-yl}-(5-methyl-2-[1,2,3]triazol-2-yl-phenyl)-methanone], for which the IC50 on human orexin-2 receptor was 187 nM; on human orexin-1 receptor, 2490 nM.
As for `Cc1cccc(-c2noc([C@@H]3CCN3C(=O)c3cc(C)ccc3-n3nccn3)n2)c1` [Example 13, (5-Methyl-2-[1,2,3]triazol-2-yl-phenyl)-[(S)-2-(3-m-tolyl-[1,2,4]oxadiazol-5-yl)-azetidin-1-yl]-methanone], the IC50 at human orexin-2 receptor amounted to 40 nM; at human orexin-1 receptor, 1160 nM.
On the same counts, the results for `Cc1ccc(-n2nccn2)c(C(=O)N2CC[C@H]2c2nc(-c3ccccc3Cl)no2)c1` [Example 14, {(S)-2-[3-(2-Chloro-phenyl)-[1,2,4]oxadiazol-5-yl]-azetidin-1-yl}-(5-methyl-2-[1,2,3]triazol-2-yl-phenyl)-methanone] are 40 nM and 1040 nM.
On the same counts, the results for `Cc1ccc(-n2nccn2)c(C(=O)N2CC[C@H]2c2nc(-c3ccccc3OC(F)(F)F)no2)c1` [Example 15, (5-Methyl-2-[1,2,3]triazol-2-yl-phenyl)-{(S)-2-[3-(2-trifluoromethoxy-phenyl)-[1,2,4]oxadiazol-5-yl]-azetidin-1-yl}-methanone] are 15 nM and 116 nM.
On the same counts, the results for `COc1c(F)cccc1-c1noc([C@@H]2CCN2C(=O)c2cc(C)ccc2-n2nccn2)n1` [Example 16, {(S)-2-[3-(3-Fluoro-2-methoxy-phenyl)-[1,2,4]oxadiazol-5-yl]-azetidin-1-yl}-(5-methyl-2-[1,2,3]triazol-2-yl-phenyl)-methanone] are 17 nM and 641 nM.
Turning to `COc1cc(C(=O)N2CC[C@H]2c2nc(-c3cccc(F)c3OC)no2)c(-n2nccn2)cc1C` [Example 17, {(S)-2-[3-(3-Fluoro-2-methoxy-phenyl)-[1,2,4]oxadiazol-5-yl]-azetidin-1-yl}-(5-methoxy-4-methyl-2-[1,2,3]triazol-2-yl-phenyl)-methanone], the 50% inhibitory concentration (IC50) on human orexin-2 receptor amounted to 9 nM; on human orexin-1 receptor, 439 nM.
On the same counts, the results for `Cc1cc(C(=O)N2CC[C@H]2c2nc(-c3ccccc3OC(F)(F)F)no2)c(-n2nccn2)cc1C` [Example 18, (4,5-Dimethyl-2-[1,2,3]triazol-2-yl-phenyl)-{(S)-2-[3-(2-trifluoromethoxy-phenyl)-[1,2,4]oxadiazol-5-yl]-azetidin-1-yl}-methanone] are 5 nM and 160 nM.
On the same counts, the results for `COc1c(F)cccc1-c1noc([C@@H]2CCN2C(=O)c2ccc(C)cc2-n2nccn2)n1` [Example 19, {(S)-2-[3-(3-Fluoro-2-methoxy-phenyl)-[1,2,4]oxadiazol-5-yl]-azetidin-1-yl}-(4-methyl-2-[1,2,3]triazol-2-yl-phenyl)-methanone] are 9 nM and 44 nM.
On the same counts, the results for `COc1c(F)cccc1-c1noc([C@@H]2CCN2C(=O)c2ccc(C)cc2-n2nccn2)n1` [Example 20, {(S)-2-[3-(3-Fluoro-2-methoxy-phenyl)-[1,2,4]oxadiazol-5-yl]-azetidin-1-yl}-(4-methyl-2-[1,2,3]triazol-2-yl-phenyl)-methanone] are 33 nM and 634 nM.
As to `Cc1cc(C(=O)N2CC[C@H]2c2nc(-c3cccc(F)c3C)no2)c(-n2nccn2)cc1C` [Example 21, (4,5-Dimethyl-2-[1,2,3]triazol-2-yl-phenyl)-{(S)-2-[3-(3-fluoro-2-methyl-phenyl)-[1,2,4]oxadiazol-5-yl]-azetidin-1-yl}-methanone], the concentration for half-maximal inhibition (IC50) at human orexin-2 receptor was found to be 4 nM; at human orexin-1 receptor it was 173 nM.
On the same counts, the results for `Cc1ccc(C(=O)N2CC[C@H]2c2nc(-c3cccc(F)c3C)no2)c(-n2nccn2)c1` [Example 22, {(S)-2-[3-(3-Fluoro-2-methyl-phenyl)-[1,2,4]oxadiazol-5-yl]-azetidin-1-yl}-(4-methyl-2-[1,2,3]triazol-2-yl-phenyl)-methanone] are 23 nM and 821 nM.
